Test results reported in US20240308968A1, “FUNGICIDAL SUBSTITUTED HETEROCYCLES” (FMC Corporation, priority 2021, published 2024).

Experiments:
Format in all cases: in vivo
Zymoseptoria tritici = assay: Test A: preventive spray on wheat seedlings, wheat leaf blotch disease rating; conditions: 100 = 100% disease control, 0 = no control; for pest or weed control at 250 ppm / pest or weed control at 50 ppm: Zymoseptoria tritici, 456 h
Method in brief: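 Disease scored after 17 days in a 20 °C growth chamber, following 48 h at 24 °C in saturated air after spore inoculation with Z. tritici. Inoculation came one day after wheat seedlings were sprayed to run-off with test suspension (acetone/water 50/50, 50–250 ppm PEG400).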

[1] = system: Puccinia recondita f. sp. Tritici; assay: Test B: preventive spray on wheat seedlings, wheat leaf rust disease rating; conditions: 100 = 100% disease control, 0 = no control; for pest or weed control at 250 ppm / pest or weed control at 50 ppm: Puccinia recondita, 192 h
Method in brief: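 Preventive test: one day after spraying wheat seedlings to run-off with ppm suspensions (acetone/water 1:1, 50-250 ppm PEG400), leaf rust spores were applied. Incubation was 24 h at saturation then 7 days at 20° C.; disease scored 0-100% control relative to untreated.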

[2] = system: Blumeria graminis f. sp. Tritici; assay: Test C: preventive spray on wheat seedlings, wheat powdery mildew disease rating; conditions: 100 = 100% disease control, 0 = no control; for pest or weed control at 250 ppm / pest or weed control at 50 ppm: Blumeria graminis, 192 h
Method in brief: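 Disease control scored visually after 8 days at 20° C, on a 0–100 scale versus untreated controls. Seedlings had received a preventive run-off spray one day before dusting with powdery mildew spores; compounds were suspended in acetone/water (50/50) containing 50–250 ppm PEG400.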

Phakopsora pachyrhizi = assay: Test D: preventive spray on soybean seedlings, Asian soybean rust disease rating; conditions: 100 = 100% disease control, 0 = no control; for pest or weed control at 250 ppm / pest or weed control at 50 ppm: Phakopsora pachyrhizi, 216 h
Method in brief: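 Seedlings of soybean were challenged with rust spores one day after a run-off spray of test suspension (acetone/water 50/50, 50–250 ppm PEG400); after 24 h saturated humidity and 8 days growth, both at 22° C, disease was scored visually.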

Botrytis cinerea = assay: Test E: preventive spray on tomato seedlings, tomato Botrytis disease rating; conditions: 100 = 100% disease control, 0 = no control; for pest or weed control at 250 ppm / pest or weed control at 50 ppm: Botrytis cinerea, 120 h
Method in brief: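 Preventive test: one day after spraying seedlings to run-off with test suspension (ppm in acetone/water, 50–250 ppm PEG400), B. cinerea spores applied. Incubation 48 h at 20 °C saturated humidity plus 3 days at 24 °C preceded visual rating as percent disease control versus controls.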

Alternaria solani = assay: Test F: preventive spray on tomato seedlings, tomato early blight disease rating; conditions: 100 = 100% disease control, 0 = no control; for pest or weed control at 250 ppm / pest or weed control at 50 ppm: Alternaria solani, 120 h
Method in brief: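 Preventive test: a day after run-off spraying with acetone/water–PEG400 suspensions (ppm), seedlings received an A. solani spore inoculum. Incubation was 48 h at 27 °C in saturated air followed by 3 days in a 20 °C chamber. Visual scores express percent disease control versus untreated plants (0–100).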

| Structure (SMILES) | Test A disease control rating (Zymoseptoria tritici; 50 ppm) | Test B disease control rating ([1]; 50 ppm) | Test C disease control rating ([2]; 50 ppm) | Test D disease control rating (Phakopsora pachyrhizi; 50 ppm) | Test E disease control rating (Botrytis cinerea; 50 ppm) | Test F disease control rating (Alternaria solani; 50 ppm) | other results |
| --- | --- | --- | --- | --- | --- | --- | --- |
| Cc1ncnc(-c2ccc(F)cc2Cl)c1-c1ccc(F)cc1Cl [Compound 43] |  |  |  |  |  |  | Test A disease control rating (Zymoseptoria tritici; 250 ppm): 0%; Test B disease control rating ([1]; 250 ppm): 0%; Test C disease control rating ([2]; 250 ppm): 0%; Test D disease control rating (Phakopsora pachyrhizi; 250 ppm): 78%; Test E disease control rating (Botrytis cinerea; 250 ppm): 0%; Test F disease control rating (Alternaria solani; 250 ppm): 0% |
| COc1ccc(-c2c(Br)c(=O)c(C)nn2-c2cc(OC)ccc2Cl)c(Cl)c1 [Compound 130] | 100% | 100% | 99% | 98% | 99% | 100% |  |
| COc1cc(OC)cc(-n2nc(CCl)c(=O)c(C)c2-c2ccc(F)cc2F)c1 [Compound 25] | 18% | 0% | 43% | 75% | 34% | 0% |  |
| COc1ccc(Cl)c(-c2nn(C)c(=O)c(C)c2-c2ccsc2C)c1 [Compound 18] | 96% | 92% | 93% | 13% | 97% | 0% |  |
| COc1cc(OC)c(Cl)c(-c2nc(C)nc(C)c2-c2c(F)cccc2F)c1 [Compound 55] | 100% | 100% | 100% | 100% | 99% | 99% |  |
| COc1cc(OC)c(Cl)c(-c2nc(Cl)nc(C)c2-c2ccc(F)cc2Cl)c1 [Compound 49, 2-chloro-4-(2-chloro-3,5-dimethoxyphenyl)-5-(2-chloro-4-fluorophenyl)-6-methylpyrimidine] |  |  |  |  |  |  | pest or weed control at 250 ppm (Zymoseptoria tritici; 250 ppm): 100%; pest or weed control at 250 ppm ([1]; 250 ppm): 100%; pest or weed control at 250 ppm ([2]; 250 ppm): 100%; pest or weed control at 250 ppm (Phakopsora pachyrhizi; 250 ppm): 100%; pest or weed control at 250 ppm (Botrytis cinerea; 250 ppm): 96%; pest or weed control at 250 ppm (Alternaria solani; 250 ppm): 100% |
| COc1cc(OC)cc(-c2cc(C#N)c(=O)n(C)c2-c2ccc(F)cc2Cl)c1 [Compound 158] | 0% | 68% | 0% | 0% | 40% | 0% |  |
| COc1cc(OC)c(Cl)c(-n2c(-c3ccc(F)cc3Cl)c(Cl)c(=O)n(C)c2=O)c1 [Compound 35, 5-chloro-1-(2-chloro-3,5-dimethoxyphenyl)-6-(2-chloro-4-fluorophenyl)-3-methyl-2,4(1H,3H)-pyrimidinedione] |  |  |  |  |  |  | pest or weed control at 50 ppm (Zymoseptoria tritici; 50 ppm): 100%; pest or weed control at 50 ppm ([1]; 50 ppm): 100%; pest or weed control at 50 ppm ([2]; 50 ppm): 98%; pest or weed control at 50 ppm (Phakopsora pachyrhizi; 50 ppm): 91%; pest or weed control at 50 ppm (Botrytis cinerea; 50 ppm): 94%; pest or weed control at 50 ppm (Alternaria solani; 50 ppm): 0% |
| COc1cc(-n2nc(CO)c(=O)c(C)c2-c2ccc(F)cc2F)cc(OC)c1Cl [Compound 32, 1-(4-chloro-3,5-dimethoxyphenyl)-6-(2,4-difluorophenyl)-3-(hydroxymethyl)-5-methyl-4(1H)-pyridazinone] |  |  |  |  |  |  | pest or weed control at 50 ppm (Zymoseptoria tritici; 50 ppm): 0%; pest or weed control at 50 ppm ([1]; 50 ppm): 0%; pest or weed control at 50 ppm ([2]; 50 ppm): 0%; pest or weed control at 50 ppm (Phakopsora pachyrhizi; 50 ppm): 25%; pest or weed control at 50 ppm (Botrytis cinerea; 50 ppm): 0%; pest or weed control at 50 ppm (Alternaria solani; 50 ppm): 0% |
| COc1ccc(Cl)c(-c2nn(C)c(=O)c(C)c2-c2cnccc2C)c1 [Compound 21, 6-(2-chloro-5-methoxyphenyl)-2,4-dimethyl-5-(4-methyl-3-pyridinyl)-3(2H)-pyridazinone] |  |  |  |  |  |  | pest or weed control at 50 ppm (Zymoseptoria tritici; 50 ppm): 54%; pest or weed control at 50 ppm ([1]; 50 ppm): 68%; pest or weed control at 50 ppm ([2]; 50 ppm): 86%; pest or weed control at 50 ppm (Phakopsora pachyrhizi; 50 ppm): 25%; pest or weed control at 50 ppm (Botrytis cinerea; 50 ppm): 96%; pest or weed control at 50 ppm (Alternaria solani; 50 ppm): 0% |
| CCOC(=O)c1nn(-c2cc(OC)cc(OC)c2Cl)c(-c2ccc(F)cc2F)c(C(=O)OCC)c1=O [Compound 127] | 0% | 41% | 0% | 0% | 0% | 0% |  |
| COc1ccc(Cl)c(-c2cc(C#N)c(=O)n(C)c2-c2ccc(F)cc2Cl)c1 [Compound 154] | 100% | 98% | 35% | 59% | 98% | 0% |  |
| COc1cc(OC)cc(-n2nc(CC#N)c(=O)c(C)c2-c2ccc(F)cc2F)c1 [Compound 31] | 61% | 0% | 0% | 0% | 9% | 0% |  |
| Cc1c(-c2ccc(F)cc2Cl)c(-c2ccsc2Br)nn(C)c1=O [Compound 6] | 100% | 100% | 99% | 78% | 91% | 99% |  |
| CCOC(=O)c1nn(-c2cc(OC)cc(OC)c2)c(-c2ccc(F)cc2)c(C(=O)OCC)c1=O [Compound 125] | 3% | 28% | 0% | 0% | 0% | 0% |  |
| CCOC(=O)c1nn(-c2cc(OC)cc(OC)c2)c(-c2ccc(F)cc2F)c(C)c1=O [Compound 28, ethyl 6-(2,4-difluorophenyl)-1-(3,5-dimethoxyphenyl)-1,4-dihydro-5-methyl-4-oxo-3-pyridazinecarboxylate] |  |  |  |  |  |  | pest or weed control at 250 ppm (Zymoseptoria tritici; 250 ppm): 0%; pest or weed control at 250 ppm ([1]; 250 ppm): 83%; pest or weed control at 250 ppm ([2]; 250 ppm): 43%; pest or weed control at 250 ppm (Phakopsora pachyrhizi; 250 ppm): 0%; pest or weed control at 250 ppm (Botrytis cinerea; 250 ppm): 31%; pest or weed control at 250 ppm (Alternaria solani; 250 ppm): 0% |
| COc1cc(OC)c(Cl)c(-c2c(-c3ccc(F)cc3F)noc(=O)c2C)c1 [Compound 62] | 100% | 99% | 76% | 87% | 97% | 0% |  |
| COc1cc(OC)cc(-n2nc(CO)c(=O)c(C)c2-c2ccc(F)cc2Cl)c1 [Compound 91] |  |  |  |  |  |  | Test A disease control rating (Zymoseptoria tritici; 250 ppm): 0%; Test B disease control rating ([1]; 250 ppm): 99%; Test C disease control rating ([2]; 250 ppm): 0%; Test D disease control rating (Phakopsora pachyrhizi; 250 ppm): 75%; Test E disease control rating (Botrytis cinerea; 250 ppm): 79%; Test F disease control rating (Alternaria solani; 250 ppm): 17% |
